Molecules are shown by their SMILES.

For data set [1] the following is noted: rats; cited from earlier work.
Data set [2] is described as follows: hydrogen peroxide release kinetics from microspheres (dissolved oxygen in PBS with catalase). As to conditions: early stages (0-3 days); levels decreased gradually. Format: physicochemical. The protocol: The hydrogen peroxide release kinetics of the CPO/PLGA MPS were determined indirectly by measuring the dissolved oxygen levels in phosphate buffered saline (PBS) after breaking down the hydrogen peroxide with catalase. Dissolved oxygen levels were measured by an oxygen sensor probe (ISO-OXY-2, World Precision Instruments), which was connected to the free radical analyzer (TBR1025, World Precision Instruments). MPS with different CPO loading and MPS with different dimensions were evaluated. […] Catalase was used to catalyze the decomposition of hydrogen peroxide to water and oxygen. […] After fully flushed, the hypoxic chamber with glass vials containing samples was sealed and placed into a cell culture incubator at 37° C.

Another data set relates to C. difficile spores. The settings on record: similar concentrations (about 100 ppm) of vaporized hydrogen peroxide; cited from earlier work.

As to `NC(N)=O` [Urea], the LD50 entry in data set [1] is listed as “about 15 g/kg”. For the molecule `[Ca+2].[O-][O-]` [free CPO, calcium peroxide], in data set [2], the “peroxide levels with free CPO in PBS” value is “Elevated peroxide levels”. With `OO` [vaporized hydrogen peroxide, hydrogen peroxide], the “time to eradicate C. difficile spores” value in the data set on C. difficile spores is at most 20 min.

The values above are taken from patent US20240374779A1, “ANTIMICROBIAL ARTICLES, METHODS OF MAKING AND USING SAME” (TERASAKI INSTITUTE FOR BIOMEDICAL INNOVATION, priority 2021, published 2024).
